Measurements reported in patent US20240327354A1, “GRAM-NEGATIVE BACTERIA EFFLUX PUMP INHIBITORS” (INSTITUT NATIONAL DE LA SANTÉ ET DE LA RECHERCHE MÉDICALE, priority 2021, published 2024).
Counter-ions that a name gives are not always drawn.

How the values were obtained:
[1] = tested on: A. baumannii LMG 1025 (ATCC 17978); assay: Assay 2: growth inhibition of A. baumannii by sub-inhibitory chloramphenicol in combination with examples (resazurin reduction); type: cell-based, Acinetobacter baumannii; conditions: read-out: EC90 on A. baumannii with 10 μg/mL of chloramphenicol, 10 μg/mL chloramphenicol, 5 h or 24 h, 37° C.
Text: (§1) Escherichia coli BW25113 (CGSC 7636) and its derivatives E. coli ΔtolC (JW5503-1, ΔtolC732::kan, CGSC 11430), E. coli ΔacrA (JW0452-3, ΔacrA748::kan, CGSC 11843) and E. coli ΔacrB (JW0451-2, ΔacrB747::kan, CGSC 8609) were obtained from E. coli Genetic Stock Center (CGSC, New Haven, Connecticut) and originated from the Keio Collection (Baba T et al, Mol Sys Biol, 2006). Klebsiella pneumoniae (LMG 2095/ATCC 13883) and K. pneumoniae (ATCC43816), Pseudomonas aeruginosa (PAO1), Acinetobacter baumannii (LMG 1025, ATCC 17978), were obtained from ATCC or BCCM/LMG Bacteria Collection. All bacteria were grown and tested in cation-adjusted Mueller-Hinton broth (CAMHB; BD Difco) at 37° C. For conservation, log phase bacteria were frozen (−80° C.) in CAMHB supplemented with 15% glycerol.
Measurement of Growth Inhibition of A. baumannii Strains by Sub Inhibitory Concentrations of Chloramphenicol in Combination with Examples 1-137
For the evaluation of the dose dependent activity of examples 1-137, their ability to boost the antibacterial activity of sub-inhibitory concentrations chloramphenicol was determined. Briefly, A. baumannii LMG 1025 (ATCC 17978) were diluted from frozen or growing stocks to an OD600 of 0.001 in CAMHB. The bacterial suspension was then used as such (no-antibiotic control to evaluate EPI activity), or spiked with chloramphenicol at a final concentration of 10 μg/mL. Bacteria were then added to microplates carrying serial dilutions of the compounds examples 1-137, and incubated for (5 h or 24 h, 37° C.). Bacterial viability was evaluated using the resazurin reduction assay, and measured by fluorescence (POLARstar Omega, BMG Labtech: Ex: 530 nm Em: 590 nm). […] were defined as the compound concentration that prevented 90% of resazurin turnover compared to the non-treated bacteria.

E. coli BW25113 = assay: Assay 1: growth inhibition of E. coli by sub-inhibitory pyridomycin in combination with examples (resazurin reduction); type: cell-based, Escherichia coli; conditions: read-out: EC50 on E. coli with 8 μg/mL of pyridomycin, 8 μg/mL pyridomycin, 5 h, 37° C.
Text: as §1
Briefly, E. coli BW25113 were diluted from frozen or growing stocks to an OD600 of 0.0004-0.001 in CAMHB. […] E. coli BW25113 viability was evaluated using the resazurin reduction assay, and measured by fluorescence (POLARstar Omega, BMG Labtech: Ex: 530 nm Em: 590 nm). EC50 were defined as the compound concentration that prevented 50% of resazurin turnover compared to the non-treated bacteria.

`FC(F)(F)c1cnc(N2CCCNCC2)c(Cl)c1` [Example 6, 1-[3-chloro-5-(trifluoromethyl)-2-pyridyl]-1,4-diazepane] was tested, and the EC90 [1] was 100 to 500 µM and the EC50 (E. coli BW25113) was 100 to 500 µM.

`Brc1cnc(N2CCCNCC2)c2ccccc12` [Example 8, 4-bromo-1-(1,4-diazepan-1-yl)isoquinoline] gave an EC90 [1] of 5 to 100 µM and an EC50 (E. coli BW25113) of 5 to 100 µM.

`CCN1CCN(c2nc3ccccc3nc2Cl)CC1` [Example 9, 2-chloro-3-(4-ethylpiperazin-1-yl)quinoxaline;hydrochloride] showed an EC90 [1] of 100 to 500 µM and an EC50 (E. coli BW25113) of 5 to 100 µM.

Compound `Clc1cc2ccccc2nc1N1CCCNCC1` [Example 11, 3-chloro-2-(1,4-diazepan-1-yl)quinoline] has an EC90 [1] of 100 to 500 µM and an EC50 (E. coli BW25113) of 5 to 100 µM.

Work on `FC(F)(F)c1cnc(N2CCNCC2)c(Cl)c1` [Example 14, 1-[3-chloro-5-(trifluoromethyl)-2-pyridyl]piperazine; hydrochloride] yielded an EC90 [1] of 100 to 500 µM and an EC50 (E. coli BW25113) of 5 to 100 µM.

`FC(F)(F)c1cnc(N2CC3CC2CN3)c(Cl)c1` [Example 15, (1S,4S)-2-[3-chloro-5-(trifluoromethyl)-2-pyridyl]-2,5-diazabicyclo[2.2.1]heptane;formic acid] was tested, and the EC90 [1] was 100 to 500 µM and the EC50 (E. coli BW25113) was 100 to 500 µM.

In the case of `FC(F)(F)c1cnc(N[C@H]2[C@@H]3CNC[C@@H]32)c(Cl)c1` [Example 16, (1R,5S)-N-[3-chloro-5-(trifluoromethyl)-2-pyridyl]-3-azabicyclo[3.1.0]hexan-6-amine;formic acid], the EC90 [1] is reported as 100 to 500 µM.

For `FC(F)(F)c1cnc(N2CCNCC2)c(Br)c1` [Example 17, 1-[3-bromo-5-(trifluoromethyl)-2-pyridyl]piperazine; hydrochloride], the EC90 [1] was 100 to 500 µM and the EC50 (E. coli BW25113) was 5 to 100 µM.

With `FC(F)(F)c1ccc(N2CCNCC2)c(Cl)c1` [Example 20, 1-[2-chloro-4-(trifluoromethyl)phenyl]piperazine; hydrochloride] the EC90 [1] was 100 to 500 µM and the EC50 (E. coli BW25113) was 5 to 100 µM.

With `FC(F)(F)c1cc(I)cnc1N1CCNCC1` [Example 21, 1-[5-iodo-3-(trifluoromethyl)-2-pyridyl]piperazine; hydrochloride] the EC90 [1] was 100 to 500 µM and the EC50 (E. coli BW25113) was 5 to 100 µM.

With `O=C(OCc1ccccc1)c1cnc(N2CCNCC2)c(Cl)c1` [Example 22, benzyl 5-chloro-6-piperazin-1-yl-pyridine-3-carboxylate;hydrochloride] the EC90 [1] was 100 to 500 µM and the EC50 (E. coli BW25113) was 5 to 100 µM.

`O=C(OCCCc1ccccc1)c1cnc(N2CCNCC2)c(Cl)c1` [Example 23, 3-phenylpropyl 5-chloro-6-piperazin-1-yl-pyridine-3-carboxylate;hydrochloride] was tested, and the EC90 [1] was 100 to 500 µM and the EC50 (E. coli BW25113) was 100 to 500 µM.

Compound `Clc1nc2ccccc2nc1N[C@H]1[C@@H]2CNC[C@@H]21` [Example 51, N-[(1R,5S)-3-azabicyclo[3.1.0]hexan-6-yl]-3-chloro-quinoxalin-2-amine;hydrochloride] has an EC90 [1] of 100 to 500 µM.

With `Clc1cc2ccccc2nc1N[C@H]1[C@@H]2CNC[C@@H]21` [Example 57, N-[(1R,5S)-3-azabicyclo[3.1.0]hexan-6-yl]-3-chloro-quinolin-2-amine;hydrochloride] the EC90 [1] was 100 to 500 µM.

`NCCCC#Cc1cnc(N2CCNCC2)c(Cl)c1` [Example 87, 5-(5-chloro-6-piperazin-1-yl-3-pyridyl)pent-4-yn-1-amine; 2,2,2-trifluoroacetic acid] was tested, and the EC50 (E. coli BW25113) was less than 5 µM.

Compound `C#Cc1cnc(N2CCNCC2)c(Cl)c1` [Example 88, 1-(3-chloro-5-ethynyl-2-pyridyl)piperazine] has an EC50 (E. coli BW25113) of 5 to 100 µM.

Compound `Clc1cc(C#Cc2ccccc2)cnc1N1CCNCC1` [Example 89, 1-[3-chloro-5-(2-phenylethynyl)-2-pyridyl]piperazine; 2,2,2-trifluoroacetic acid] has an EC50 (E. coli BW25113) of 5 to 100 µM.

`NCCc1ccc(C#Cc2cnc(N3CCNCC3)c(Cl)c2)cc1` [Example 92, 2-[4-[2-(5-chloro-6-piperazin-1-yl-3-pyridyl)ethynyl]phenyl]ethanamine; 2,2,2-trifluoroacetic acid] was tested, and the EC50 (E. coli BW25113) was less than 5 µM.

In the case of `NCCCn1cc(-c2ccc3nc(N4CCNCC4)c(Cl)cc3c2)nn1` [Example 93, 3-[4-(3-chloro-2-piperazin-1-yl-6-quinolyl)triazol-1-yl]propan-1-amine;dihydrochloride], the EC50 (E. coli BW25113) is reported as less than 5 µM.

In the case of `NCCn1cc(-c2ccc3nc(N4CCNCC4)c(Cl)cc3c2)nn1` [Example 94, 2-[4-(3-chloro-2-piperazin-1-yl-6-quinolyl)triazol-1-yl]ethanamine;dihydrochloride], the EC50 (E. coli BW25113) is reported as less than 5 µM.

`CN(C)CCn1cc(-c2ccc3nc(N4CCNCC4)c(Cl)cc3c2)nn1` [Example 95, 2-[4-(3-chloro-2-piperazin-1-yl-6-quinolyl)triazol-1-yl]-N,N-dimethyl-ethanamine;dihydrochloride] showed an EC50 (E. coli BW25113) of less than 5 µM.

`O=C1NCCN1c1ccc2nc(N3CCNCC3)c(Cl)cc2c1` [Example 96, 1-(3-chloro-2-piperazin-1-yl-6-quinolyl)imidazolidin-2-one;hydrochloride] showed an EC50 (E. coli BW25113) of less than 5 µM.

Compound `O=C1CCCN1c1ccc2nc(N3CCNCC3)c(Cl)cc2c1` [Example 97, 1-(3-chloro-2-piperazin-1-yl-6-quinolyl)pyrrolidin-2-one;hydrochloride] has an EC50 (E. coli BW25113) of less than 5 µM.

`NCC1CCN(c2ccc3nc(N4CCNCC4)c(Cl)cc3c2)CC1` [Example 99, [1-(3-chloro-2-piperazin-1-yl-6-quinolyl)-4-piperidyl]methanamine;dihydrochloride] was tested, and the EC50 (E. coli BW25113) was less than 5 µM.

Work on `NCC1CCN(c2ccc3nc(N4CCNCC4)c(Cl)cc3c2)C1` (stereo not drawn) [Example 100, [1-(3-chloro-2-piperazin-1-yl-6-quinolyl)pyrrolidin-3-yl]methanamine;dihydrochloride] yielded an EC50 (E. coli BW25113) of less than 5 µM.

Work on `N[C@@H]1CCN(c2ccc3nc(N4CCNCC4)c(Cl)cc3c2)C1` [Example 101, (3R)-1-(3-chloro-2-piperazin-1-yl-6-quinolyl)pyrrolidin-3-amine;dihydrochloride] yielded an EC50 (E. coli BW25113) of less than 5 µM.

`N[C@H]1CCN(c2ccc3nc(N4CCNCC4)c(Cl)cc3c2)C1` [Example 102, (3S)-1-(3-chloro-2-piperazin-1-yl-6-quinolyl)pyrrolidin-3-amine;dihydrochloride] gave an EC50 (E. coli BW25113) of less than 5 µM.

`Clc1cc2cc(N[C@@H]3CCNC3)ccc2nc1N1CCNCC1` [Example 103, 3-chloro-2-piperazin-1-yl-N-[(3R)-pyrrolidin-3-yl]quinolin-6-amine;dihydrochloride] gave an EC50 (E. coli BW25113) of 5 to 100 µM.

With `OCc1cccc(-c2ccc3nc(N4CCNCC4)c(Cl)cc3c2)c1` [Example 108, [3-(3-chloro-2-piperazin-1-yl-6-quinolyl)phenyl]methanol;hydrochloride] the EC50 (E. coli BW25113) was less than 5 µM.

`C[C@@H](N)c1cccc(-c2ccc3nc(N4CCNCC4)c(Cl)cc3c2)c1` [Example 113, (1R)-1-[3-(3-chloro-2-piperazin-1-yl-6-quinolyl)phenyl]ethanamine;dihydrochloride] was tested, and the EC50 (E. coli BW25113) was less than 5 µM.

`CC(C)(N)c1cccc(-c2ccc3nc(N4CCNCC4)c(Cl)cc3c2)c1` [Example 114, 2-[3-(3-chloro-2-piperazin-1-yl-6-quinolyl)phenyl]propan-2-amine;dihydrochloride] was tested, and the EC50 (E. coli BW25113) was less than 5 µM.

Work on `NCCc1cccc(-c2ccc3nc(N4CCNCC4)c(Cl)cc3c2)c1` [Example 115, 2-[3-(3-chloro-2-piperazin-1-yl-6-quinolyl)phenyl]ethanamine;dihydrochloride] yielded an EC50 (E. coli BW25113) of less than 5 µM.

For `NCc1ccc(C(F)(F)F)c(-c2ccc3nc(N4CCNCC4)c(Cl)cc3c2)c1` [Example 122, [3-(3-chloro-2-piperazin-1-yl-6-quinolyl)-4-(trifluoromethyl)phenyl]methanamine;dihydrochloride], the EC50 (E. coli BW25113) was less than 5 µM.

`NCc1ccnc(-c2ccc3nc(N4CCNCC4)c(Cl)cc3c2)c1` [Example 131, [2-(3-chloro-2-piperazin-1-yl-6-quinolyl)-4-pyridyl]methanamine;dihydrochloride] gave an EC50 (E. coli BW25113) of less than 5 µM.

`NCc1cncc(-c2ccc3nc(N4CCNCC4)c(Cl)cc3c2)c1` [Example 132, [5-(3-chloro-2-piperazin-1-yl-6-quinolyl)-3-pyridyl]methanamine;dihydrochloride] was tested, and the EC50 (E. coli BW25113) was less than 5 µM.

`NCc1cccc(-c2ccc3nc(N4CCNCC4)c(Cl)cc3c2)c1Cl` [Example 136, [2-chloro-3-(3-chloro-2-piperazin-1-yl-6-quinolyl)phenyl]methanamine;dihydrochloride] was tested, and the EC50 (E. coli BW25113) was less than 5 µM.

`NCc1cc(Cl)cc(-c2ccc3nc(N4CCNCC4)c(Cl)cc3c2)c1` [Example 137, [3-chloro-5-(3-chloro-2-piperazin-1-yl-6-quinolyl)phenyl]methanamine;dihydrochloride] gave an EC50 (E. coli BW25113) of less than 5 µM.
